Measured values reported in patent US20070293458A1, “Prevention of nuclear, solar, and other radiation-induced tissue damage” (IP-6 Research Inc., priority 2006, published 2007).
Entries after “also recorded” stand apart in the source; their conditions may differ.

Tests used:
Format in all cases: cell-based, human
HaCaT cells [1] = experiment: Annexin V and PI staining, flow cytometry (apoptotic, necrotic, viable cells) after UVB radiation; conditions: UVB-exposed
Method: FIG. 3. Effect of IP-6 and UVB radiation on cell cycle distribution of HaCaT cells. For annexin V and PI staining cells were either not exposed or exposed to 30 mJ/cm^2 UVB radiation, then either treated with 1.0 mM Na-IP-6 or not treated with IP-6. Eighteen hours later, cells were harvested and double stained with annexin V and PI and analyzed by flow cytometry. The number of cells that are present in apoptosis, necrosis or are viable are represented as percentages; p<0.001, as compared to the group exposed to UVB but not treated with IP-6. The concentration of inositol in the media is 38.8 μM. HaCaT cells were plated in 60 mm tissue culture dishes for 24 hours. The cells were then either not exposed, or exposed, to 30 mJ/cm^2 UVB radiation and treated immediately with 0, 0.5 mM, or 1.0 mM IP-6. Cells were harvested 6 and 18 hours after UVB exposure. 5 μL of RNase (DNase-free) was added to 10^6 cells/mL. The cell suspension was incubated at 37° C. for 30 minutes. The suspension was then chilled on ice (2-8° C.). 100 μL of PI was added to the cell suspension (Cellular DNA flow cytometric analysis kit, Roche Diagnostics, Indianapolis, Ind.). DNA quantitation was performed on the same day by flow cytometry using FACS.

HaCaT cells [2] = experiment: MTT assay of cell viability and proliferation after UVB radiation
Method: The human keratinocyte (HaCaT) cells were grown in Dulbecco's Modified Eagle's Medium containing 7 mg/L of inositol (38.8 μM), supplemented with 10% heat-inactivated fetal bovine serum, 1% L-glutamine, and 1% antibiotic (penicillin, streptomycin). Cells were maintained at 37° C. and 5% CO2. Na-IP-6 was diluted from a 100 mM stock solution to the required concentrations (0.05-2.0 mM) using cell culture medium as the diluent. UVB intensities of 15, 30, 60 and 120 mJ/cm^2 were used, which was obtained by varying cell exposure time to UVB light (80% of light output is in 290-320 nm UVB range).
HaCaT cells were grown to approximately 80-90% confluency. 100 μL of 1×10^4 cells/mL HaCaT cells were seeded into each well of four 96-well plates. Cells were treated with IP-6 (0-2.0 mM), and on days 0, 1, 2, and 3, 100 μL of 1 mg/mL of aqueous MTT dissolved in DMEM media was added to each well and plates were placed into the incubator (37° C. and 5% CO2) for 4 hours. 150 μL of DMSO was then added to dissolve the formazan products. The absorbance was read at 540 nm using an EL Ultra Micro-plate Reader. Results were recorded as mean absorbance for each set of groups. […]
To determine if IP-6 protects HaCaT cells from UVB-induced injury, The MTT assay was performed as done above. […] Results were recorded as the mean absorbance for each set of groups.

[3] = tested on: caspase-3 activation of HaCaT cells; experiment: Fluorometric CaspACE assay of activated caspase-3 activity
Method: FIG. 4. Effect of IP-6 and UVB radiation on caspase-3 activation of HaCaT cells. To assess activated caspase-3 activity, cells were either not exposed or exposed to 30 mJ/cm^2 UVB radiation, and then either treated with 1.0 mM Na-IP-6 or not treated with IP-6. Eighteen hours later, cells were harvested and fluorometric CaspACE assays were performed. Activated caspase-3 activity is represented as relative fluorescence units. **Significant at p<0.01, as compared to the group exposed to UVB but not treated with IP-6. The concentration of inositol in the media is 38.8 μM.
HaCaT cells were plated in 60 mm tissue culture dishes for 24 hours. The cells were either exposed to 30 mJ/cm^2 UVB radiation or not exposed. […] 10 μL of sample was then combined with caspase assay buffer (312.5 mM HEPES (pH 7.5), 31.25% sucrose, 0.3125% CHAPS (3-[(3-cholamido-propyl)-dimethyl ammonio]-1 propane-sulfonate, 2% DMSO, 10 mM DTT) containing 50 μM caspase-3 substrate, Ac-DEVD-AMC, in white 96 well microtiter plates. Negative control wells included 2 μL of 2.5 mM specific peptide inhibitor of caspase-3 (Ac-DEVD-CHO). The plate was incubated at 30° C. for 1 hour. The free reaction product, AMC was then measured using a fluorescent plate reader with an excitation wavelength of 360 nm and an emission wavelength of 460 nm. Caspase-3 activity was reported as relative fluorescent intensity of AMC.

HaCaT cells [4] = experiment: Cell cycle distribution by PI flow cytometry after UVB radiation
Method: HaCaT cells were plated in 60 mm tissue culture dishes for 24 hours. The cells were then either not exposed, or exposed, to 30 mJ/cm^2 UVB radiation and treated immediately with 0, 0.5 mM, or 1.0 mM IP-6. Cells were harvested 6 and 18 hours after UVB exposure. 5 μL of RNase (DNase-free) was added to 10^6 cells/mL. The cell suspension was incubated at 37° C. for 30 minutes. The suspension was then chilled on ice (2-8° C.). 100 μL of PI was added to the cell suspension (Cellular DNA flow cytometric analysis kit, Roche Diagnostics, Indianapolis, Ind.). DNA quantitation was performed on the same day by flow cytometry using FACS.

HaCaT cells [5] = experiment: Cell attachment (crystal violet absorbance) after UVB radiation
Method: 5×10^4 HaCaT cells were seeded into each well of four 6-well tissue culture plates and incubated at 37° C. and 5% CO2 for 24 hours. One hour before UVB irradiation, two plates were treated with IP-6 (0 and 0.1 mM), one for IP-6 pre-treatment and the other for IP-6 pre-treatment and post-treatment. All four plates were then washed twice with PBS 1×, and a small amount of PBS 1× was added to the wells, which were irradiated at 30 mJ/cm^2. After UVB exposure, PBS was removed from the wells and DMEM media was added to each well. IP-6 (0.05 and 0.1 mM) was then added to the plates labeled no UVB exposure, IP-6 post-treatment, and pre-treatment and post-treatment. The cells were then incubated (37° C. and 5% CO2) for 18 hours. Following incubation, the cells were washed 4 times with PBS 1× (pH 7.4), then fixed with 4.0% formaldehyde for 15 minutes, and stained with 0.5% aqueous crystal violet for at least 5 minutes. Excess crystal violet was washed from the wells and the plates were left to dry. The dried crystal violet residue in each well was then dissolved in 500 μL of 30% acetic acid. The absorbance was read at 595 nm in triplicate in a 96-well plate using an EL Ultra Micro-plate Reader. Additionally, 5×10^4 HaCaT cells were plated into each well of ten 6-well plates as was done above. Before UVB irradiation, cells were washed twice with PBS 1×, and a small amount of PBS 1× was added to the wells. Cells were then exposed to no UVB, or 15, 30, 60, or 120 mJ/cm^2 intensities. Following exposure, cell media was added to the wells and cells were treated with IP-6 (0-2.0 mM). The cells were then incubated at 37° C. and 5% CO2. 18 hours after UVB exposure, cells were fixed with 4% formaldehyde, stained with 0.5% aqueous crystal violet and dissolved with 30% acetic acid as was done above. The absorbance was read in triplicate at 595 nm.

[6] = 0.5 mM IP-6, vs UVB without IP-6
[7] = 0.5 and 1.0 mM IP-6, vs UVB without IP-6, p<0.001

For `O=P(O)(O)O[C@H]1[C@H](OP(=O)(O)O)[C@@H](OP(=O)(O)O)[C@H](OP(=O)(O)O)[C@@H](OP(=O)(O)O)[C@H]1OP(=O)(O)O` [IP-6, inositol hexaphosphate], the “percentage of apoptotic cells” value (HaCaT cells [1]; [6]) was “significant decrease”, the “percentage of necrotic cells” value (HaCaT cells [1]; [6]) was “significant decrease” and the “percentage of viable cells” value (HaCaT cells [1]; [6]) was “significant increase”. The “apoptotic, necrotic and viable cells, effects relative to 0.5 mM” value (HaCaT cells [1]; 1.0 mM IP-6) was “much more pronounced”, the “apoptotic cells, dose dependence” value (HaCaT cells [1]; [7]) was “dose-dependent decrease” and the “necrotic cells, dose dependence” value (HaCaT cells [1]; [7]) was “dose-dependent decrease”. The viable cells (HaCaT cells [1]; [7]) was “increase in viable cells”, the “cell viability and proliferation (MTT)” value (HaCaT cells [2]; UVB 15-120 mJ/cm^2, IP-6 0-2.0 mM added immediately after UVB, read 24 h later, p<0.001) was “increase in cell viability with increasing concentration of IP-6; also recorded: significant increase in relative cell viability with increasing IP-6 concentrations” and the “cell viability (MTT), normal trend” value (HaCaT cells [2]; normal trend with higher IP-6 concentration (without the UVB effect)) was “decrease in cell viability with higher concentration of IP-6”. For the same compound, the “activated caspase-3 activity” value ([3]; 1.0 mM IP-6, no UVB, 18 hours, vs control group) was “increase in activated caspase-3 activity”, the “activated caspase-3 activity” value ([3]; UVB 30 mJ/cm^2 + 1.0 mM IP-6, 18 hours, vs UVB without IP-6, p<0.01) was “significantly lowered” and the “G2M phase, 1.0 mM vs 0.5 mM treatment” value (HaCaT cells [4]; 18 hours after UVB 30 mJ/cm^2) was “comparable”. For the same compound, the “effect on different phases of the cell cycle, 6 vs 18 hour” value (HaCaT cells [4]; UVB 30 mJ/cm^2, IP-6 0.5 or 1.0 mM) was “no time-dependent differences”, the cell attachment (HaCaT cells [5]; UVB 15 mJ/cm^2, 18 h, higher IP-6 concentrations (1.0 and 2.0 mM), vs non-IP-6 treated group) was “decrease in cell attachment” and the cell attachment (HaCaT cells [5]; UVB 15 mJ/cm^2, 18 h, lower IP-6 concentrations, vs non-IP-6 treated group) was “increase in cell attachment”. The cell attachment (HaCaT cells [5]; UVB 30 mJ/cm^2, 18 h, vs irradiated cells without IP-6, p<0.01 (FIG. 2: 0.5, 1.0 and 2.0 mM)) was “significant increase in HaCaT cell attachment with increasing concentrations of IP-6”, the cell attachment (HaCaT cells [5]; UVB 60 mJ/cm^2, 18 h, vs irradiated cells without IP-6) was “decrease in cell attachment” and the cell attachment (HaCaT cells [5]; UVB 120 mJ/cm^2, 18 h, vs irradiated cells without IP-6) was “decrease in cell attachment”.
